# Assay results from patent US10751353B2, “Compositions and methods for treating an aggregation disease or disorder” (Seelos Therapeutics, Inc., priority 2013, dated 2020).
# Where “and” joins values, the source holds several entries; their conditions need not be identical. Equal entries are not always repeated. Where two headings read alike, the source gives them in different places.
# How the values were obtained:
# [1] = Preclinical PK study: plasma and muscle concentrations of trehalose after IV bolus and oral gavage; format: in vivo, male Sprague-Dawley (SD) rats
# Protocol: The plasma and muscle concentrations of trehalose in male Sprague-Dawley (SD) rats was determined after intravenous bolus (IV) and oral gavage (PO) administration.
# The study included 42 SD rats (male, 250 to 350 grams in weight, the Shanghai SLAC Laboratory Animal Co. Ltd.). Animals were administered with a volume of 5 ml/kg trehalose formulation (trehalose dihydrate in sterilized water at 200 mg/mL) to achieve a nominal dose of 1 gr/kg, intravenously or orally.
# Blood samples were collected after each dose administration and processed for plasma. Muscle samples (hind leg muscle) were collected and homogenized. The concentrations of trehalose in plasma and muscle homogenate samples were analyzed by qualified bioanalytical LC/MS/MS methods.
# Plasma concentration data of trehalose was subjected to a non compartmental pharmacokinetic analysis using WinNonlin software program (version 6.3, Pharsight, Mountain View, Calif.). Zero-time intercept concentration (C0), volume of distribution (Vdss), Clearance (Cl) peak plasma concentrations (Cmax) and the corresponding peak times (Tmax), terminal half-life (T½), mean residence time (MRT) from time zero to the last time point (MRT0-last), MRT from time zero to infinity (MRT0-inf), the area under the plasma concentration-time curve (AUC) from time zero to the last time point (AUC0-last) and AUC from time zero extrapolated to infinity (AUC0-inf) were calculated using the linear/log trapezoidal rule. Nominal sampling times were used to calculate all pharmacokinetic parameters since there was not any deviation larger than 5% between the actual and nominal sampling times.
# The values of muscle to plasma concentration and AUC ratio (M/P ratio) were both calculated.
# [2] = test system: Mouse; settings: cited from earlier work; for LD50: Mouse
# [3] = test system: Rat; settings: cited from earlier work
# [4] = test system: Dog; settings: cited from earlier work; for LD50: Dog
# [5] = cited from earlier work
# [6] = cited from earlier work; remark: listed apart in the source
# [7] = rabbits; 500 mg intravenously; cited from earlier work
# [8] = test system: mutant PABPN1 proteins; settings: OPMD cell models; cited from earlier work
# [9] = test system: OPMD mouse model; settings: cited from earlier work
# [10] = male, Sprague-Dawley, rat, in vivo, iv, 1000 mg/kg
# [11] = male, Sprague-Dawley, rat, in vivo, po, 1000 mg/kg
compound,measurement,setting,value
OC[C@H]1O[C@H](O[C@H]2O[C@H](CO)[C@@H](O)[C@H](O)[C@H]2O)[C@H](O)[C@@H](O)[C@@H]1O [trehalose],tolerability at the given dosage,"[1]; 1000 mg/kg IV or PO, male SD rats",well tolerated
same,bioavailability,"[1]; male, Sprague-Dawley, rat, in vivo, 1000 mg/kg",0.601%
same,AUC(0-inf),[1]; [10],781 µg·h/mL
same,CI (total clearance),[1]; [10],17.2 mL/min/kg
same,Cmax,[1]; [10],3730 ng/mL and 3730 ng/g
same,Vd,[1]; [10],0.685 L/kg
same,Vdss,[1]; [10],0.685 L/kg
same,clearance,[1]; [10],17.2 mL/min/kg
same,total clearance as share of rat liver blood flow (=55 mL/min/kg),[1]; [10],approximately 31.3%
same,AUC(0-t),"[1]; male, Sprague-Dawley, rat, in vivo, iv, 1000 mg/kg, AUC0-last",778 µg·h/mL
same,Kp,"[1]; male, Sprague-Dawley, rat, in vivo, iv, 1000 mg/kg, AUC ratio = Muscle AUC0-inf/Plasma AUC0-inf",0.234
same,Kp,"[1]; male, Sprague-Dawley, rat, in vivo, iv, 1000 mg/kg, mean ratios of muscle trehalose concentration to plasma concentration",2.88 to 3.76
same,AUC(0-t),"[1]; male, Sprague-Dawley, rat, in vivo, iv, 1000 mg/kg, muscle exposure AUC0-last (48 hr)",107 µg·h/mL
same,AUC0-inf/AUC0-last,[1]; [11],108%
same,AUC0-last,[1]; [11],4.52 µg·h/mL
same,AUC(0-inf),[1]; [11],4.87 µg·h/mL
same,Cmax,[1]; [11],4280 ng/mL
same,T1/2,[1]; [11],0.740 h
same,AUC(0-t),"[1]; male, Sprague-Dawley, rat, in vivo, po, 1000 mg/kg, AUC0-last",4.52 µg·h/mL
same,MRT inf,"[1]; male, Sprague-Dawley, rat, in vivo, po, 1000 mg/kg, MRT0-inf",1.26 h
same,MRT last,"[1]; male, Sprague-Dawley, rat, in vivo, po, 1000 mg/kg, MRT0-last",1.04 h
same,half-life,"[1]; male, Sprague-Dawley, rat, in vivo, po, 1000 mg/kg, T1/2",0.74 h
same,cellular uptake and retention after rapid intravenous administration,"[1]; rat, in vivo, iv",48 to 72 h
same,AUC0-last,"[1]; rat, in vivo, iv, 1000 mg/kg",107000 ng·h/g
same,AUC(0-inf),"[1]; rat, in vivo, iv, 1000 mg/kg",183000 ng·h/g
same,muscle samples of oral group,"[1]; rat, in vivo, po, 1000 mg/kg",below LLOQ
same,"plasma and muscle concentrations of trehalose, formulation administered orally","[1]; rat, in vivo, po, 1000 mg/kg",undetectable
same,LD50,[2]; Intravenous,>1000 mg/kg bw
same,LD50,[2]; Oral,>5000 mg/kg bw
same,signs of toxicity and deaths,"[2]; mice, oral and intravenous administration",no deaths occurred
same,LD50,"[3]; Rat, Intravenous",>1000 mg/kg bw
same,signs of toxicity and deaths,"[3]; rats, oral and intravenous administration",no deaths occurred
same,LD50,[4]; Intravenous,>1000 mg/kg bw
same,LD50,[4]; Oral,>5000 mg/kg bw
same,signs of toxicity and deaths,"[4]; dogs, oral and intravenous administration",no deaths occurred
same,share of ingested trehalose absorbed into the blood stream,[5]; oral ingestion,Less than 0.5%
same,share of trehalose not absorbed into the blood stream,[5]; oral,Over 99.5%
same,safety in healthy volunteers,"[6]; oral doses 10 to 60 gr, apart from mild abdominal symptoms",no other safety issues were reported
same,oral amount that causes diarrhea and bloating,[6]; oral,40-50 gram per day
same,"oral amount that frequently causes diarrhea, bloating and discomfort","[6]; oral, humans",higher than 50 g a day
same,time to clearance from the plasma,[7],≤ 60 min
same,trehalose detected in the urine,[7],none was detected
same,aggregation and toxicity of mutant PABPN1 proteins,[8],effective in reducing
same,aggregate formation,[9],decreased aggregate formation
same,muscle weakness,[9],attenuation of muscle weakness
same,number of pathological skeletal muscle fibers,[9],reduced number of pathological skeletal muscle fibers
